Measurements taken from ChEMBL document CHEMBL3396954, “Synthesis and in vitro biological evaluation of dihydroartemisinyl-chalcone esters” (Eur J Med Chem, 2015).

How the values were obtained:
[1] = Selectivity index, ratio of IC50 for chloroquine-resistant Plasmodium falciparum W2 to IC50 for human TK10 cells; parameters: species or system TK-10
TK-10 = test: Anticancer activity against human TK10 cells assessed as inhibition of cell growth after 24 hrs by SRB assay; assay type: functional, cell-based; details: TK-10, 24 h
[2] = Cytotoxicity against human WI38 cells assessed as inhibition of proliferation after 24 hrs by SRB assay; assay type: cell-based; details: WI-38, 24 h
[3] = Selectivity index, ratio of IC50 for human WI38 cells to IC50 for chloroquine-sensitive Plasmodium falciparum 3D7; assay type: toxicity, cell-based, WI-38; details: read-out: Ratio IC50
Plasmodium falciparum [4] = test: Antimalarial activity against chloroquine-sensitive Plasmodium falciparum 3D7 assessed as inhibition of parasite proliferation after 96 hrs by SYBR Green I-based fluorescence method; assay type: functional, organism-based; details: 3D7, 96 h
Plasmodium falciparum [5] = test: Antimalarial activity against chloroquine-resistant Plasmodium falciparum W2 assessed as inhibition of parasite proliferation after 96 hrs by SYBR Green I-based fluorescence method; assay type: functional, organism-based; details: W2, 96 h
[6] = Selectivity index, ratio of IC50 for chloroquine-resistant Plasmodium falciparum W2 to IC50 for human MCF7 cells
[7] = Resistance index, ratio of IC50 for chloroquine-resistant Plasmodium falciparum W2 to IC50 for chloroquine-sensitive Plasmodium falciparum 3D7; assay type: functional
MCF7 [8] = test: Selectivity index, ratio of IC50 for human WI38 cells to IC50 for human MCF7 cells; assay type: functional
[9] = Anticancer activity against human UACC62 cells assessed as inhibition of cell growth after 24 hrs by SRB assay; assay type: functional, cell-based; details: UACC-62, 24 h
UACC-62 = test: Selectivity index, ratio of IC50 for human WI38 cells to IC50 for human UACC62 cells; assay type: functional
MCF7 [10] = test: Anticancer activity against human MCF7 cells assessed as inhibition of cell growth after 24 hrs by SRB assay; assay type: functional, cell-based; details: MCF7, 24 h
[11] = Selectivity index, ratio of IC50 for chloroquine-resistant Plasmodium falciparum W2 to IC50 for human UACC62 cells; parameters: species or system UACC-62
WI-38 = test: Selectivity index, ratio of IC50 for human WI38 cells to IC50 for human TK10 cells; assay type: functional

Structure (SMILES) | Ratio IC50 [1] | IC50 (TK-10) [µM] | IC50 [2] [µM] | selectivity ratio [3] | IC50 (Plasmodium falciparum [4]) [µM] | IC50 (Plasmodium falciparum [5]) [µM] | Ratio IC50 [6] | Ratio IC50 [7] | Ratio IC50 (MCF7 [8]) | IC50 [9] [µM] | Ratio IC50 (UACC-62) | IC50 (MCF7 [10]) [µM] | Ratio IC50 [11] | Ratio IC50 (WI-38)
C[C@@H]1CC[C@H]2[C@@H](C)C(OC(=O)c3ccc(/C=C/C(=O)c4ccccc4)cc3)O[C@@H]3O[C@]4(C)CC[C@@H]1[C@]32OO4 (stereo partly drawn) | >786 | 8.32 | > 100 | > 10300 | 0.00973 | 0.0106 | >339 | 1.1 | >28 | 5.35 | >19 | 3.59 | >505 | >12
COc1ccc(C(=O)/C=C/c2ccc(C(=O)O)cc2)cc1[N+](=O)[O-] | 0.7 | 21.1 | 29 | 0.7 | 0.0407 | 0.0312 | 0.3 | 0.8 | 3 | 13.4 | 2.2 | 9.52 | 0.4 | 1.4
O=C(O)c1ccc(/C=C/C(=O)c2ccc(Cl)c(Cl)c2Cl)cc1 | 0.4 | 23.6 | 20.4 | 0.5 | 0.041 | 0.0622 | 0.1 | 1.5 | 2.3 | 19.7 | 1 | 8.73 | 0.3 | 0.9
COc1ccc(C(=O)/C=C/c2ccc(C(=O)OC3O[C@@H]4O[C@]5(C)CC[C@H]6[C@H](C)CC[C@@H]([C@H]3C)[C@@]46OO5)cc2)cc1OC (stereo partly drawn) | >4105 | 5.99 | > 100 | > 29800 | 0.00336 | 0.00146 | >2329 | 0.4 | >29 | 5.19 | >19 | 3.4 | >3556 | >17
CC[C@H]1CN2CCc3cc(OC)c(OC)cc3[C@@H]2C[C@@H]1C[C@H]1NCCc2cc(OC)c(OC)cc21 [EMETINE] |  |  | 0.05 |  |  |  |  |  |  |  |  |  |  | 
CCN(CC)CCCC(C)Nc1ccnc2cc(Cl)ccc12 (stereo not drawn) [CHLOROQUINE] |  |  | 3.63 |  |  |  |  |  |  |  |  |  |  | 
Cc1ccc(C(=O)/C=C/c2ccc(C(=O)O)cc2)o1 | 5.2 | 90 | 32 | 1.7 | 0.0183 | 0.0173 | 1.1 | 0.9 | 1.6 | 58 | 0.6 | 19.7 | 3.3 | 0.4
C[C@H]1[C@@H](OC(=O)c2ccc(/C=C/C(=O)c3ccc(Cl)c(Cl)c3Cl)cc2)O[C@@H]2O[C@]3(C)CC[C@H]4[C@H](C)CC[C@@H]1[C@@]24OO3 | 9198.6 | 53.7 | 61.9 | 5800 | 0.0107 | 0.00584 | 2549.7 | 0.5 | 4.2 | 28.5 | 2.2 | 14.9 | 4873.3 | 1.2
Cc1ccc(C(=O)/C=C/c2ccc(C(=O)O[C@@H]3O[C@@H]4O[C@]5(C)CC[C@H]6[C@H](C)CC[C@@H]([C@H]3C)[C@@]46OO5)cc2)o1 | 2451.7 | 3.6 | 72.2 | 36500 | 0.00198 | 0.00147 | 2325.9 | 0.7 | 21.1 | 3.29 | 21.9 | 3.42 | 2240.1 | 20
COc1ccc(C(=O)/C=C/c2ccc(C(=O)O)cc2)c(OC)c1 | 4 | 59.6 | 48.6 | 3.3 | 0.0148 | 0.0148 | 1.9 | 1 | 1.7 | 6.75 | 7.2 | 28.1 | 0.5 | 0.8
C=C1C(=O)O[C@@H]2C3O[C@]3(C)CC/C=C(\C)CC[C@@H]12 (stereo partly drawn) |  | 3.71 |  |  |  |  |  |  |  | 9.71 |  | 2.4 |  | 
COc1ccc(C(=O)/C=C/c2ccc(C(=O)O)cc2)cc1OC | 1.7 | 18.9 | 67.4 | 6.2 | 0.0108 | 0.0108 | 0.8 | 1 | 7.6 | 7.87 | 8.6 | 8.88 | 0.7 | 3.6
O=C(O)c1ccc(/C=C/C(=O)c2ccccc2)cc1 | >1 | 29.8 | > 100 | > 3.4 | 0.0295 | 0.0308 | >0.4 | 1 | >8 | 13.9 | >7 | 11.9 | >0.5 | >3
C[C@H]1[C@H](OC(=O)CCC(=O)O)O[C@@H]2O[C@@]3(C)CC[C@H]4[C@H](C)CC[C@@H]1[C@@]24OO3 [ARTESUNATE] |  |  |  |  | 0.004 | 0.00571 |  |  |  |  |  |  |  | 
COc1ccc(C(=O)/C=C/c2ccc(C(=O)OC3O[C@@H]4O[C@]5(C)CC[C@H]6[C@H](C)CC[C@@H]([C@H]3C)[C@@]46OO5)cc2)cc1[N+](=O)[O-] (stereo partly drawn) | >3010 | 17 | > 100 | > 17000 | 0.00587 | 0.00566 | >512 | 1 | >34 | 7.58 | >13 | 2.9 | >1340 | >6
COc1ccc(C(=O)/C=C/c2ccc(C(=O)OC3O[C@@H]4O[C@]5(C)CC[C@H]6[C@H](C)CC[C@@H]([C@H]3C)[C@@]46OO5)cc2)c(OC)c1 (stereo partly drawn) | >10799 | 22 | > 100 | > 33100 | 0.00302 | 0.00204 | >500 | 0.7 | >100 | 4.33 | >23 | 1.02 | >2123 | >5
C[C@H]1[C@@H](O)O[C@@H]2O[C@@]3(C)CC[C@H]4[C@H](C)CC[C@@H]1[C@@]24OO3 [ARTENIMOL] |  |  |  |  | 0.00145 | 0.00131 |  | 0.9 |  |  |  |  |  | 
